Here are results for six compounds from patent US4883800A, “Quinazoline derivatives and process for their production” (Fujisawa Pharmaceutical Co., Ltd., priority 1985, dated 1989).

The structures appear in SMILES notation.

The target in one experiment is T1, aldose reductase (Oryctolagus cuniculus, UniProt P15122).
T1 construct: The supernatant was dialyzed against 2 liters of 0.05M of saline solution and the dialyzed solution was used as the enzyme solution; from tissue; host or cells: rabbit eye lens, 10,000 G supernatant of homogenate, dialyzed
In words: Enzymatic assay method: aldose reductase inhibition (in vitro test). Format: biochemical. As to conditions: rabbit lens enzyme; D,L-glyceraldehyde, NADPH; 35° C., 2 minutes; pH 6.2 buffer; read-out: IC50: concentration at which 50% of the aldose reductase activity is inhibited. As for the experimental part:
(1) Enzymatic assay method:
0.5 M Phosphate buffer (pH 6.2)
2.0 M Lithium sulfate 0.2 ml
The compound of this invention mentioned
(dissolved in physiological saline
Enzyme solution [aldose reductase solution,
prepared as described below (2)]
60 mM D,L-glyceraldehyde 0.05 ml
2.5 mM Nicotinamide adenine
dinucleotide phosphate (reduced form)
The above reactants were mixed and reacted at 35° C. for 2 minutes and the decrease in amount of NADPH was measured with an Automatic Reaction Rate Analyzer Model LKB-8600 (Trademark, made by LKB Producter A.B.). The enzyme activity at a change in absorbance of 0.001 per minute was taken as unity.
(2) Method for preparing an enzyme solution
Rabbit eyes were enucleated and the lenses were collected. The lenses were homogenized with 3 volumes of distilled water at 4° C. (All the subsequent procedures were also performed at 4° C.) and centrifuged at 10,000 G for 60 minutes. The supernatant was dialyzed against 2 liters of 0.05M of saline solution and the dialyzed solution was used as the enzyme solution.
Each IC50 value (M) represents the concentration of the compounds of this invention at which 50% of the aldose reductase activity is inhibited.

The test system of experiment [1] is sorbitol accumulation in sciatic nerve. The experiment can be described thus: Inhibitory effect of drug on sorbitol accumulation in sciatic nerve (in vivo test). As to conditions: 32 mg/kg, oral, once a day for five days; 6 hours after final administration; streptozotocin-diabetic rats. More on the design: species or system Male Sprague-Dawley rats (streptozotocin-induced diabetic). Here is the method: Inhibitory effect of drug on sorbitol accumulation in sciatic nerve:
Male Sprague-Dawley rats (6 weeks old) were fasted for 24 hours and then made diabetic by the intraperitoneal injection (2 ml/kg) of streptozotocin (75 mg/kg) dissolved in 2 mM citrate buffer (pH 4.5).
Seven days after streptozotocin injection, blood glucose value was measured by taking blood from tail vein. Rats with blood glucose value of >300 mg/dl were used as streptozotocin-induced diabetic animals.
Diabetic animals were divided at random into two groups (group (A) and group (B)).
Drug was suspended in 0.5% aqueous methylcellulose solution and orally administered to each rat in group (A) once a day for five days [hereinafter referred to as drug-treated diabetic rats].
Each of rats in group (B) and of normal rats was given the vehicle (0.5% aqueous methylcellulose solution) [hereinafter referred to as untreated diabetic rats and control rats, respectively].
Six hours after final administration of drug or vehicle, animals were killed and sorbitol content in sciatic nerve was assayed. Inhibitory percent of drug on sorbitol accumulation in sciatic nerve was calculated as follows. [formula]
S: Sorbitol content in sciatic nerve of untreated diabetic rats.
SD : Sorbitol content in sciatic nerve of drug-treated diabetic rats.
N: Sorbitol content in sciatic nerve of control rats.

Take `O=C(O)Cn1c(=O)n(Cc2ccc(Cl)c(Cl)c2)c(=O)c2ccccc21` [Compound A, 2-[3-(3,4-Dichlorobenzyl)-1,2,3,4-tetrahydro-2,4-dioxoquinazolin-1-yl]acetic acid]: the IC50 on aldose reductase amounted to 5.4 nM. `O=C(O)Cn1c(=O)n(Cc2ccc(Br)cc2F)c(=O)c2ccccc21` [Compound B, 2-[3-(4-Bromo-2-fluorobenzyl)-1,2,3,4-tetrahydro-2,4-dioxoquinazolin-1-yl]acetic acid]: the IC50 at aldose reductase came out at 4.8 nM. As to `COc1ccc2c(=O)n(Cc3ccc(Br)cc3F)c(=O)n(CC(=O)O)c2c1` [Compound C, 2-[3-(4-Bromo-2-fluorobenzyl)-1,2,3,4-tetrahydro-7-methoxy-2,4-dioxoquinazolin-1-yl]acetic acid], at aldose reductase, the IC50 was 5.4 nM.

As to `O=C(O)Cn1c(=O)n(Cc2ccc(I)cc2F)c(=O)c2ccccc21` [Compound D, 2-[3-(2-Fluoro-4-iodobenzyl)-1,2,3,4-tetrahydro-2,4-dioxoquinazolin-1-yl]acetic acid], the IC50 on aldose reductase stood at 5.3 nM. For the same compound, in experiment [1], the “I: Inhibitory percent on sorbitol accumulation in sciatic nerve” value (“I: Inhibitory percent” below) amounted to 101%.

Take `O=C(O)Cn1c(=O)n(Cc2ccc(Br)cc2F)c(=O)c2ccc(Br)cc21` [Compound E, 2-[7-Bromo-3-(4-bromo-2-fluorobenzyl)-1,2,3,4-tetrahydro-2,4-dioxoquinazolin-1-yl]acetic acid]: at aldose reductase, the IC50 amounted to 3.1 nM. In experiment [1], the “I: Inhibitory percent” value was 103%.

For the compound `O=C(O)Cn1c(=O)n(Cc2ccc(Br)cc2F)c(=O)c2ccc(Cl)cc21` [Compound F, 2-[3-(4-Bromo-2-fluorobenzyl)-7-chloro-1,2,3,4-tetrahydro-2,4-dioxoquinazolin-1-yl]acetic acid], the “I: Inhibitory percent” value in experiment [1] came out at 99%.
